Reference: the supplement of paper PMC10307832

Legend:
Experiment in all cases: relative viability (nuclei count vs DMSO), 5 days (fraction); higher = more cells survive
[1] = compound: Cc1ccc(Nc2nccc(N(C)c3ccc4c(C)n(C)nc4c3)n2)cc1S(N)(=O)=O [Pazopanib] + CC1(C)CCC(c2ccc(Cl)cc2)=C(CN2CCN(c3ccc(C(=O)NS(=O)(=O)c4ccc(N[C@H](CCN5CCOCC5)CSc5ccccc5)c(S(=O)(=O)C(F)(F)F)c4)cc3)CC2)C1 [Navitoclax] (partner 0.5 µM)
Summary of the method: (§1)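 One day after seeding in 1536-well plates, lung cancer cell lines were dosed by pin tool. Dosing was either single-drug or a fixed anchor-drug dose plus five library-drug doses (not always all listed) in √10 steps. After 5 days, nuclei were stained in one fix-and-stain step and counted on 4× images, and relative viability is the nuclei count of treated wells over that of vehicle wells, given as the median of duplicate plates.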

[2] = compound: Cc1ccc(C(=O)Nc2ccc(CN3CCN(C)CC3)c(C(F)(F)F)c2)cc1C#Cc1cnc2cccnn12 [Ponatinib] + CC(C)C[C@H](NC(=O)[C@H](Cc1ccccc1)NC(=O)c1cnccn1)B(O)O [Bortezomib] (partner 0.002 µM)
Summary of the method: as §1

[3] = compound: Cc1ccc(Nc2nccc(N(C)c3ccc4c(C)n(C)nc4c3)n2)cc1S(N)(=O)=O [Pazopanib] + Cc1cc(Nc2cc(N3CCN(C)CC3)nc(Sc3ccc(NC(=O)C4CC4)cc3)n2)n[nH]1 [Tozasertib] (partner 0.1 µM)
Summary of the method: as §1

[4] = compound: Cc1ccc(C(=O)Nc2ccc(CN3CCN(C)CC3)c(C(F)(F)F)c2)cc1C#Cc1cnc2cccnn12 [Ponatinib] + CC(=O)Nc1cccc(-n2c(=O)n(C3CC3)c(=O)c3c(Nc4ccc(I)cc4F)n(C)c(=O)c(C)c32)c1 [Trametinib] (partner 0.02 µM)
Summary of the method: as §1

UMC-11
relative viability ([1]; first compound 0.01 µM): 0.318 | relative viability ([1]; first compound 0.03162 µM): 0.312 | relative viability ([1]; first compound 0.1 µM): 0.303 | relative viability ([1]; first compound 0.3162 µM): 0.268 | relative viability ([1]; first compound 1 µM): 0.348 | relative viability ([2]; first compound 0.002 µM): 0.653 | relative viability ([2]; first compound 0.006325 µM): 0.769 | relative viability ([2]; first compound 0.06325 µM): 0.921 | relative viability ([2]; first compound 0.2 µM): 0.646 | relative viability ([3]; first compound 0.01 µM): 0.196 | relative viability ([3]; first compound 0.03162 µM): 0.19 | relative viability ([3]; first compound 0.1 µM): 0.208 | relative viability ([3]; first compound 0.3162 µM): 0.206 | relative viability ([3]; first compound 1 µM): 0.211 | relative viability ([4]; first compound 0.002 µM): 0.648 | relative viability ([4]; first compound 0.006325 µM): 0.638 | relative viability ([4]; first compound 0.06325 µM): 0.822 | relative viability ([4]; first compound 0.2 µM): 0.709
